The values below come from ChEMBL document CHEMBL1201862, “PubChem BioAssay data set” (2004).

Calls of active or inactive are those of the source.

In one data set the target is Cytochrome P450 2C19 (Homo sapiens, UniProt P33261). Kind of data set: Cytochrome panel assay with activity outcomes. Panel member name: p450-cyp2c19 Compounds with AC50 equal or less than 10 uM are considered active. Type of data set: functional.
The next data set addresses T1, Streptokinase A (Streptococcus pyogenes serotype M1, UniProt P10520).
T1 sequence (P10520 whole entry): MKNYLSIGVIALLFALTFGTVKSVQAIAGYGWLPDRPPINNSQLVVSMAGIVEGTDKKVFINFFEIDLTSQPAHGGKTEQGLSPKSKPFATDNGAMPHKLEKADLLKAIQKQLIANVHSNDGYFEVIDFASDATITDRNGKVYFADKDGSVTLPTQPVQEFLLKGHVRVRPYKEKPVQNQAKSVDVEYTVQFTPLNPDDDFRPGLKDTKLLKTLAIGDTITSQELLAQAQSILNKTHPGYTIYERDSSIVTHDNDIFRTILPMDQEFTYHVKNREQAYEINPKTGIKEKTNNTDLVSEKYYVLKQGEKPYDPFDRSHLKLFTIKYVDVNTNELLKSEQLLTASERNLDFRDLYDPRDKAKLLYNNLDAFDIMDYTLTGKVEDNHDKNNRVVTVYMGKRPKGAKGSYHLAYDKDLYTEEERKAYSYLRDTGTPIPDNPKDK
Kind of data set: viability-normalized secreted streptokinase activity reduction – plasminogen activation absorbance, OD405, dose response (AID 1914).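 Note: secreted streptokinase activity via plasminogen activation per viability signal from cell pellet.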 The data set is classed as functional, Streptococcus pyogenes M1 GAS.

A further data set deals with Streptococcus. Kind of data set: GAS UMAA2166 growth inhibition – luminescence, BacTiterGlo, counter-screen for streptokinase expression inhibitor project, dose response (AID 1915).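 Note: potency for reduction of bacterial viability or growth.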 Type of data set: functional, organism-based.
For data set [1], the system named is Streptococcus sp. 'group A'. Kind of data set: Streptococcus pyogenes SK(-)GAS viability under kanamycin – luminescence, BacTiterGlo, confirmation, counter-screen for streptokinase expression inhibitor project, dose response (AID 1900). Type of data set: functional, organism-based. For orientation: Counterscreens check selectivity or assay interference.
Data set [2] is described as follows: viability of uninfected HEp-2 cells – cell-based, HTS, cytotoxicity control for RSV inhibitor project, dose response (AID 2410). Type of data set: functional. The conditions noted are these: human respiratory syncytial virus.
Data set [3] in a line: Trypanosoma cruzi growth suppression in host cells – NIH3T3 host cells, beta-gal luminescence, confirmation (AID 2044).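 Note: intracellular parasites grown in NIH/3T3 mouse fibroblasts as host cells; luminescent beta-galactosidase reporter signal from transgenic T. cruzi replicating inside host cells; inhibitors lower the luminescence signal.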 Type of data set: functional, cell-based.
Data set [4] can be described thus: NIH3T3 cell viability loss – ATP luminescence, mouse fibroblasts, counter-screen, dose response (AID 2010).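 Note: cells exposed to compound for about 90 hours before reading.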 Type of data set: functional, cell-based.

Sequence of Cytochrome P450 2C19 (P33261 whole entry): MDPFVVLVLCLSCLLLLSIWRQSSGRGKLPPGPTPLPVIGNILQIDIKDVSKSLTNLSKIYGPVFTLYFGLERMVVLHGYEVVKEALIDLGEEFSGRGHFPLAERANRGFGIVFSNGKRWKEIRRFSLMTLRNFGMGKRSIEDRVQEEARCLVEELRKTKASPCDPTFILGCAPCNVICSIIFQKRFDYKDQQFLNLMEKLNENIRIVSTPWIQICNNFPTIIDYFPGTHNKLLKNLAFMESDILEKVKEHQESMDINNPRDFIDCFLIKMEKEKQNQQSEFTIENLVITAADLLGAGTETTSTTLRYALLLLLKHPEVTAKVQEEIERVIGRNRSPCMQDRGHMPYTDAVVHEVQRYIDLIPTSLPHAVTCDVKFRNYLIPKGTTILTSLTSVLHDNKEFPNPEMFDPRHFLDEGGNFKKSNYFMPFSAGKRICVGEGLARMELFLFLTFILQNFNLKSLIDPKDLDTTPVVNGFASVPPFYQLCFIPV

In the case of `COc1cccc(-c2nc(NC3CC3)c3ccccc3n2)c1`, at Cytochrome P450 2C19 (read-out: AC50), the half-maximal activity concentration (AC50) is 10 µM (inconclusive). On to `CN(C(=S)NC(=O)c1ccccc1)C1CCCCC1`, for which the concentration giving a half-maximal response (EC50) (on Streptokinase A; in the data set with Streptococcus; in data set [1]) was > 150 µM (not active) throughout. For `O=C(Nc1cccc(-c2csc(Nc3ccc(Cl)cc3)n2)c1)c1ccccc1`, the figures for the concentration giving a half-maximal response (EC50) (at Streptokinase A; in the data set on Streptococcus; in data set [1]) were > 150 µM (not active), 5.66 µM (active) and 4.01 µM (active), respectively. In addition, in data set [2], the CC50 is 10.3 µM (active).

`C=CCCN(C1CCCC1)S(=O)(=O)c1ccccc1Br`: in data set [2], the CC50 was > 50 µM (active). Take `Cn1c(=O)c2[nH]c(-c3ccc(S(=O)(=O)O)cc3)nc2n(C)c1=O`: the AC50 entry at Cytochrome P450 2C19 is recorded as “inconclusive”. For the compound `O=C(c1ccccc1Cl)N1CCN(S(=O)(=O)c2cccs2)CC1`, the EC50 (at Streptokinase A; in the data set with Streptococcus; in data set [1]) was > 150 µM (not active) in each case.

On to `CCc1c(C)nc(N)n2c(SCC(=O)Nc3ccccc3)nnc12`, for which, on Cytochrome P450 2C19 (read-out: AC50), the concentration at half-maximal activity (AC50) is 22.4 µM (inconclusive). `CCN1C(=O)N[C@@H](CCc2ccccc2)C(C(=O)OC)=C1C`: in data set [2], the cytotoxic concentration (CC50) is 29.9 µM (active). For `CCn1cc(CN2CCCC(C(=O)c3ccc(-c4ccccc4)cc3)C2)cn1` (configuration not stated), the half-maximal effective concentration (EC50) in data set [3] is 0.222 µM (active); in data set [4] it was 16.7 µM (active).

For `COC(=O)[C@@H]1CC[C@H](C)[C@@H](c2ccc(C)cc2)N1C(=O)c1ccc(/C=N/O[C@@H](C)c2cn([C@H](CO)Cc3ccccc3)nn2)cc1`, the EC50 in data set [3] was 0.891 µM (active); in data set [4] it was > 60 µM (inconclusive). As to `O=C(Nc1nc(-c2ccccn2)cs1)C1CC1`, the EC50 (on Streptokinase A; with Streptococcus; in data set [1]) was > 150 µM (not active) each time. In the case of `C=CCNC(=O)O/N=C/c1csc([N+](=O)[O-])c1`, the EC50 was 1.93 µM (active) in data set [3] and > 60 µM (not active) in data set [4]. Turning to `O=C(C(Cc1ccccc1)N1C(=O)C2C3CCC(C3)C2C1=O)N1CCCCC1` (configuration not stated), on Cytochrome P450 2C19 (read-out: AC50), the half-maximal activity concentration (AC50) was 7.08 µM (inconclusive). Turning to `Fc1ccc(N2CCN(C3=Nc4cccc5cccc3c45)CC2)cc1`, the 50% effective concentration (EC50) in data set [3] was 1.74 µM (active); in data set [4] it was > 30 µM (not active).

For the compound `Cc1cccc(CSc2ncnc3c2cnn3Cc2ccccc2)c1`, the EC50 on Streptokinase A was > 150 µM (not active); with Streptococcus, > 150 µM (not active); in data set [1] it was 23 µM (active). For the compound `Cc1cnn(-c2nc(-c3ccccc3)cc(-c3ccccc3)n2)c1`, the concentration giving a half-maximal response (EC50) is 27.2 µM (active) on Streptokinase A, > 150 µM (not active) in the data set with Streptococcus and 9.49 µM (active) in data set [1]. `FC(F)Sc1ccc(NC(S)=NC(c2ccccc2)c2ccccc2)cc1`: the figures for the EC50 (in the data set on Streptococcus; in data set [1]) were 3.15 µM (active) and 2.4 µM (active), respectively. As for `Cc1cc(N2CCOCC2)nc2ccc(NC(=O)CCC(=O)N3CCN(c4ccc(F)cc4)CC3)cc12`, the CC50 in data set [2] is > 12.5 µM (active).

Consider `O=C(/C=C/c1cc[n+](CC(=O)c2ccc3cccc4c3c2CC4)cc1)c1ccc2cccc3c2c1CC3`, for which the EC50 in data set [3] was 0.146 µM (active); in data set [4] it was > 60 µM (not active).

On to `CCC1CCCCN1c1nc2c(C=O)c(C)nn2c2ccccc12` (configuration not stated), for which the 50% cytotoxic concentration (CC50) in data set [2] is 20.5 µM (active). Regarding `CN(CCOc1ccccc1)C(=O)c1cc([N+](=O)[O-])cc([N+](=O)[O-])c1`, the EC50 is 0.7 µM (active) in data set [3] and > 30 µM (not active) in data set [4]. In the same order, the values of `CCN(CC)CCN(C)C(=O)CCc1nnc(-c2ccc(C)s2)o1` are 1.35 µM (active) and > 60 µM (not active).

Turning to `CCC(C(=O)NC(C)CCc1ccccc1)n1nc(C)n2c(cc3occc32)c1=O` (configuration not stated), the CC50 in data set [2] is 39.2 µM (active). On the same count and under the same terms, the same measure for `CCc1nc2ccccc2nc1O`: 28.8 µM (active). As to `Cc1c(C(O)CN2CCN(Cc3ccc4c(c3)OCO4)CC2)c2ccccc2n1C` (configuration not stated), the EC50 is 2.47 µM (active) in data set [3] and > 60 µM (not active) in data set [4]. As to `Cc1ccc2nc(O)c(CN(CCCN(C)C)C(S)=NCCc3ccccc3)cc2c1`, the concentration giving a half-maximal response (EC50) in data set [3] is 0.409 µM (active); in data set [4], > 60 µM (not active). Take `CCn1c(SCC(=O)OC)nnc1C1CCCCC1`: at Cytochrome P450 2C19 (read-out: AC50), the AC50 was 14.1 µM (inconclusive). For `O=C(CCCN1C(=O)/C(=C\c2cccs2)SC1=S)Nc1cc([N+](=O)[O-])ccc1O`, the 50% effective concentration (EC50) at Streptokinase A was 25.3 µM (active); in the data set on Streptococcus, > 150 µM (not active); in data set [1], 4.29 µM (active). Take `COc1ncc2nc(-c3cn(C)c4ccccc34)c(=O)n(Cc3ccc(F)cc3)c2n1`: the AC50 on Cytochrome P450 2C19 (read-out: AC50) was 15.8 µM (inconclusive). Take `O=C(Cn1ccc(C(F)(F)F)n1)N=Nc1c(O)[nH]c2ccc(Br)cc12`: in data set [2], the 50% cytotoxic concentration (CC50) is > 50 µM (active). `COc1ccc(Oc2nc(C(F)(F)F)nc3ccccc23)cc1`: the values for the EC50 (on Streptokinase A; in the data set on Streptococcus; in data set [1]) were 46.8 µM (active), > 150 µM (not active) and 29.1 µM (active), respectively. Regarding `C/C(CCC(=O)OC[C@@H]1O[C@H](C#Cc2ccccc2)C=C[C@@H]1Oc1ccc(C)cc1)=N/O[C@@H](C)CN1CCCCc2nc(C)c(C)cc21`, the concentration at half-maximal activity (AC50) at Cytochrome P450 2C19 (read-out: AC50) is 1.26 µM (inconclusive). As to `CCC/C=C(\CCC)C(NS(=O)(=O)CC12CCC(CC1=O)C2(C)C)c1ccc(C(=O)OC)cc1` (configuration not stated), the half-maximal activity concentration (AC50) at Cytochrome P450 2C19 (read-out: AC50) was 25.1 µM (inconclusive).

Regarding `COc1ccc(C2(C)NC(=O)N(CC(=O)Nc3ccc(-c4nc5ccc(C)cc5s4)cc3)C2=O)cc1` (configuration not stated), in data set [2], the CC50 was 29.8 µM (active). For `CN1CCC(OC(=O)c2ccccc2Cl)CC1`, the figures for the EC50 in data set [3] and in data set [4] were 0.178 µM (active) and 10.5 µM (active), respectively.

On to `CCCCCSc1nc2c(c(=O)[nH]c(=O)n2C)n1C`, for which the 50% cytotoxic concentration (CC50) in data set [2] was > 50 µM (active). On to `O=C(NCC1CCCO1)c1cc2c3ccccc3nc-2c(-c2cccc(Cl)c2)[nH]1` (configuration not stated), for which the EC50 at Streptokinase A was > 150 µM (not active); in the data set with Streptococcus, 25.3 µM (active); in data set [1] it was 4.12 µM (active). On to `Sc1nnc(-c2cccs2)n1/N=C/c1cn(-c2ccccc2)nc1-c1ccccc1`, for which the figures for the EC50 (on Streptokinase A; in the data set on Streptococcus; in data set [1]) were > 150 µM (not active), 71.7 µM (active) and 6.85 µM (active), respectively.

For `CC(C)NCC(O)COCCOc1ccc(Br)cc1` (configuration not stated), the EC50 in data set [3] is 1.1 µM (active); in data set [4], > 30 µM (not active). `Cc1ccc2nc(O)c(COC(=O)C3CCCCC3)cc2c1`: in data set [2], the CC50 is > 50 µM (active).

Turning to `FC(F)(F)c1ccccc1/C=N/n1c(S)nnc1COc1ccccc1`, the half-maximal cytotoxic concentration (CC50) in data set [2] is 32.1 µM (active). For `CC1N(C)c2cc(NC(=O)c3ccco3)c(P(=O)(Nc3ccc([N+](=O)[O-])cc3)N3CCOCC3)cc2C1(C)C` (configuration not stated), the half-maximal cytotoxic concentration (CC50) in data set [2] was 18 µM (active).

Turning to `Cc1ccc(OC(=O)c2cccc(C(=O)Oc3ccc(C)cc3)n2)cc1`, on Cytochrome P450 2C19, the half-maximal activity concentration (AC50) entry is listed as “inconclusive”. As to `O=C(N[C@H](CO)[C@H](O)c1ccc([N+](=O)[O-])cc1)C(Cl)Cl` [CHLORAMPHENICOL], the EC50 with Streptococcus is 2.55 µM (active); in data set [1], 1.84 µM (active). As for `CCOCCCN=C(S)NCCNc1nc2c(C)cccc2cc1C#N`, the results for the EC50 in data set [3] and in data set [4] were 2.73 µM (active) and > 60 µM (not active), respectively. As to `O=C1NC(=O)N(CCc2ccccc2)C(=O)/C1=C(O)/C=C/c1c[nH]c2ccccc12`, the 50% effective concentration (EC50) is > 150 µM (not active) on Streptokinase A, 5.6 µM (active) in the data set with Streptococcus and 5.47 µM (active) in data set [1].

For `CC(=O)c1coc2c1cc(O)c1ccccc12`, the 50% cytotoxic concentration (CC50) in data set [2] is > 50 µM (active). Turning to `Cc1ccc(C2c3c(C)nn(-c4ccc([N+](=O)[O-])cc4)c3N=C3C(=O)Nc4ccccc4N32)cc1` (configuration not stated), the half-maximal effective concentration (EC50) in data set [3] was 1.45 µM (active); in data set [4], > 60 µM (not active). Regarding `NC(=S)N/N=C\c1c(OCc2ccccc2Cl)ccc2ccccc12`, the 50% effective concentration (EC50) is > 150 µM (not active) on Streptokinase A, > 150 µM (not active) in the data set on Streptococcus and 2.39 µM (active) in data set [1].

`Cn1c[n+](C)cc1/C=N/O`: the AC50 at Cytochrome P450 2C19 (read-out: AC50) was 8.91 µM (inconclusive). Take `O=S(=O)(Nc1cccc2c1CCCC2)c1ccc(Cl)cc1`: the values for the EC50 (on Streptokinase A; in the data set with Streptococcus; in data set [1]) were 97.8 µM (inconclusive), > 150 µM (not active) and 4.86 µM (active), respectively.

Take `C=CCn1c(SCc2cc(=O)n3ccsc3n2)nc2scc(C3CC3)c2c1=O`: the CC50 in data set [2] was 33.1 µM (active). Same read-out and setting: the same measure for `CCOC(=O)c1c(C)[nH]c(C(=O)COC(=O)c2cc(C)oc2C)c1C`: > 50 µM (active). With `CN(C)CCCNc1ncc(C(F)(F)F)cc1Cl`, the half-maximal effective concentration (EC50) is 0.659 µM (active) in data set [3] and > 30 µM (not active) in data set [4].

In general, AC50 refers to the concentration giving half of the maximal activity seen. The term EC50 denotes the concentration that produces a half-maximal response. One may read the CC50 as the concentration giving 50% cytotoxicity.
